{"source": "PubChem BioAssay AID1259409", "about": "(Chemical Carcinogenesis Research Information System (CCRIS), 2018)", "origin": "cited, not measured here", "test_system": "rodent chemically induced tumor inhibition, incidence and multiplicity", "assay": "CCRIS tumor inhibitor studies", "conditions": "Route [Inhibitor]: ORAL, Promoter: NONE USED"}
{"smiles": "CC1=C(/C=C/C(C)=C/C=C/C(C)=C/C(=O)NCCO)C(C)(C)CCC1", "values": [{"measurement": "tumour outcome (control, treated, inhibition, significance)", "setting": "Carcinogen: N-NITROSOBIS(2-OXYPROPYL)AMINE, 60599-38-4, Dose [Inhibitor]: 0.05, 0.1 OR 0.2 MM/KG DIET FOR 32 WK STARTING 1 WK AFTER THE CARCINOGEN DOSE (STUDY DURATION: 33 WK), Species: HAMSTER, Strain/Sex: SYRIAN/FEMALE, Target Tissue: Type of Lesion: PANCREAS: CARCINOMA IN SITU, Dose [Carcinogen]: 40 MG/KG, ONCE, ONE WK PRIOR TO START OF AGENT TREATMENT", "value": "1/10 (10%), 11/29 (38%), -280%, not significant"}, {"measurement": "tumour outcome (control, treated, inhibition, significance)", "setting": "Carcinogen: N-NITROSOBIS(2-OXYPROPYL)AMINE, 60599-38-4, Dose [Inhibitor]: 0.05, 0.1 OR 0.2 MM/KG DIET FOR 32 WK STARTING 1 WK AFTER THE CARCINOGEN DOSE (STUDY DURATION: 33 WK), Species: HAMSTER, Strain/Sex: SYRIAN/FEMALE, Target Tissue: Type of Lesion: PANCREAS: INTRADUCTAL CARCINOMA, Dose [Carcinogen]: 40 MG/KG, ONCE, ONE WK PRIOR TO START OF AGENT TREATMENT", "value": "2/10 (20%), 6/29 (21%), -5%, not significant"}, {"measurement": "tumour outcome (control, treated, inhibition, significance)", "setting": "Carcinogen: N-NITROSOBIS(2-OXYPROPYL)AMINE, 60599-38-4, Dose [Inhibitor]: 0.05, 0.1 OR 0.2 MM/KG DIET FOR 32 WK STARTING 1 WK AFTER THE CARCINOGEN DOSE (STUDY DURATION: 33 WK), Species: HAMSTER, Strain/Sex: SYRIAN/MALE, Target Tissue: Type of Lesion: PANCREAS: ADENOCARCINOMA, Dose [Carcinogen]: 40 MG/KG, ONCE, ONE WK PRIOR TO START OF AGENT TREATMENT", "value": "1/12 (8%), 4/29 (14%), -75%, not significant"}, {"measurement": "tumour outcome (control, treated, inhibition, significance)", "setting": "Carcinogen: N-NITROSOBIS(2-OXYPROPYL)AMINE, 60599-38-4, Dose [Inhibitor]: 0.05, 0.1 OR 0.2 MM/KG DIET FOR 32 WK STARTING 1 WK AFTER THE CARCINOGEN DOSE (STUDY DURATION: 33 WK), Species: HAMSTER, Strain/Sex: SYRIAN/MALE, Target Tissue: Type of Lesion: PANCREAS: CARCINOMA IN SITU, Dose [Carcinogen]: 40 MG/KG, ONCE, ONE WK PRIOR TO START OF AGENT TREATMENT", "value": "3/12 (25%), 5/29 (17%), 32%, not significant"}, {"measurement": "tumour outcome (control, treated, inhibition, significance)", "setting": "Carcinogen: N-NITROSOBIS(2-OXYPROPYL)AMINE, 60599-38-4, Dose [Inhibitor]: 0.05, 0.1 OR 0.2 MM/KG DIET FOR 32 WK STARTING 1 WK AFTER THE CARCINOGEN DOSE (STUDY DURATION: 33 WK), Species: HAMSTER, Strain/Sex: SYRIAN/MALE, Target Tissue: Type of Lesion: PANCREAS: INTRADUCTAL CARCINOMA, Dose [Carcinogen]: 40 MG/KG, ONCE, ONE WK PRIOR TO START OF AGENT TREATMENT", "value": "2/12 (17%), 0/29 (0%), 100%, not significant"}, {"measurement": "tumour outcome (control, treated, inhibition, significance)", "setting": "Carcinogen: N-NITROSOBIS(2-OXYPROPYL)AMINE, 60599-38-4, Dose [Inhibitor]: 0.05, 0.1 OR 0.2 MM/KG DIET FOR 32 WK STARTING 1 WK AFTER THE CARCINOGEN DOSE (STUDY DURATION: 33 WK), Species: HAMSTER, Strain/Sex: SYRIAN/MALE, Target Tissue: Type of Lesion: PANCREAS: MICROCARCINOMA, Dose [Carcinogen]: 40 MG/KG, ONCE, ONE WK PRIOR TO START OF AGENT TREATMENT", "value": "3/12 (25%), 4/29 (14%), 44%, not significant"}, {"measurement": "tumour outcome (control, treated, inhibition, significance)", "setting": "Carcinogen: NONE USED, Dose [Inhibitor]: 687 MG/KG DIET DAILY FOR 54 WK (STUDY DURATION: 54 WK), Species: RAT, Strain/Sex: ACI/SEGHAPBR/MALE, Target Tissue: Type of Lesion: ADRENAL GLAND: TUMOR", "value": "15/43 (35%), 22/44 (50%), -43%, not significant"}, {"measurement": "tumour outcome (control, treated, inhibition, significance)", "setting": "Carcinogen: NONE USED, Dose [Inhibitor]: 687 MG/KG DIET DAILY FOR 54 WK (STUDY DURATION: 54 WK), Species: RAT, Strain/Sex: ACI/SEGHAPBR/MALE, Target Tissue: Type of Lesion: PANCREAS: ISLET CELL ADENOMA", "value": "1/40 (3%), 8/44 (18%), -500%, p<0.05"}, {"measurement": "tumour outcome (control, treated, inhibition, significance)", "setting": "Carcinogen: NONE USED, Dose [Inhibitor]: 687 MG/KG DIET DAILY FOR 54 WK (STUDY DURATION: 54 WK), Species: RAT, Strain/Sex: ACI/SEGHAPBR/MALE, Target Tissue: Type of Lesion: PITUITARY GLAND: ADENOMA, CARCINOMA", "value": "20/39 (51%), 19/41 (46%), 10%, not significant"}, {"measurement": "tumour outcome (control, treated, inhibition, significance)", "setting": "Carcinogen: NONE USED, Dose [Inhibitor]: 687 MG/KG DIET DAILY FOR 54 WK (STUDY DURATION: 54 WK), Species: RAT, Strain/Sex: ACI/SEGHAPBR/MALE, Target Tissue: Type of Lesion: PROSTATE GLAND: ADENOMA, CARCINOMA", "value": "19/44 (43%), 12/43 (28%), 35%, not significant"}, {"measurement": "tumour outcome (control, treated, inhibition, significance)", "setting": "Carcinogen: NONE USED, Dose [Inhibitor]: 687 MG/KG DIET DAILY FOR 54 WK (STUDY DURATION: 54 WK), Species: RAT, Strain/Sex: ACI/SEGHAPBR/MALE, Target Tissue: Type of Lesion: SKIN: TUMOR", "value": "12/45 (27%), 5/44 (11%), 59%, not significant"}, {"measurement": "tumour outcome (control, treated, inhibition, significance)", "setting": "Carcinogen: NONE USED, Dose [Inhibitor]: 687 MG/KG DIET DAILY FOR 54 WK (STUDY DURATION: 54 WK), Species: RAT, Strain/Sex: ACI/SEGHAPBR/MALE, Target Tissue: Type of Lesion: TESTES: INTERSTITIAL CELL TUMOR", "value": "21/45 (47%), 27/44 (61%), -30%, not significant"}]}
